Patent publication US20110182982A1, “LIPOSOME TREATMENT OF VIRAL INFECTIONS” (University of Oxford, priority 2006, published 2011)

System: HIV-1 primary isolates
Assay: p24 secretion of HIV-1-infected PBMCs, eight primary isolates
Format: cell-based
Method: Clearance of HIV-1 primary isolates from infected human cells by NB-DNJ was assessed using phytohemagglutinin (PHA)-activated peripheral blood mononuclear cells (PBMCs) as indicator cells and the determination of p24 antigen production as the end point.
PBMCs from four normal (uninfected) donors were isolated, pooled, and stimulated with PHA (5 μg/ml) for 48 h followed by PHA plus interleukin-2 (40 U/ml) for 72 h in RPMI 1640 medium containing 10% heat-inactivated fetal bovine serum (FBS), 100 U of penicillin per ml, 100 μg of streptomycin per ml, and 2 mM L-glutamine. All experiments were performed in 96-well microtiter plates. To infect cells, 100 μl of PHA-activated PBMCs (5×10^5/ml) was added to each well, after which an equal volume containing 100 50% tissue culture infective doses (TCID50) of primary isolate stock was added. After an overnight incubation, the cells were washed three times with tissue culture medium, and finally re-suspended in medium containing the appropriate liposome treatment or free NB-DNJ. On day 7, approximately 10-30% of the culture volume containing secreted HIV-1 virions was used to infect naïve PBMCs for a second round of infection and treatment (volume transferred was calculated to be the volume necessary for the untreated control of that isolate to infect naïve cells at a TCID50=100). Rounds of treatment and infection of naïve cells were continued over four weeks, and at every time point cellular supernatant containing secreted virions was isolated and used in capture ELISAs to determine p24 concentration (measure of secretion). Additionally, supernatant isolated at each time point throughout treatment was used to infect naïve PBMCs (TCID50=100) for two weeks with no further treatment, which allowed for the observation of a rebound in viral activity.
PBMCs infected with 8 primary isolates (listed in Table 3) were incubated in the presence of free NB-DNJ (concentrations ranging 0-1 mM) or liposome-encapsulated NB-DNJ (0-3.75 μM, final lipid concentration of 50 μM).

[1] = Human immunodeficiency virus 1, PBMC, free, three rounds of treatment, six isolates

CCCCN1C[C@H](O)[C@@H](O)[C@H](O)[C@H]1CO [NB-DNJ, N-butyl-1,5-dideoxy-1,5-imino-D-glucitol]
reduction in viral secretion (1 mM free in medium, first week, most isolates): 30-40% | enhancement of antiviral activity, liposome vs free (DOPE:CHEMS:PEG-PE liposomes): 10^4-10^5 fold | IC50 [1]: 400 µM | IC90 [1]: 500 µM | final NB-DNJ concentration with antiviral activity similar to 500 μM free (encapsulated in DOPE:CHEMS:PEG-PE liposomes, all isolates): 3.75 to 37.5 nM | reduction in viral activity (free, all isolates): ≥ 90% | antiviral concentration (lowest to clear viral activity in all isolates) (free, four weeks treatment): 500 µM
